Measurements reported in US20210260010A1, “COMPOSITIONS AND METHODS FOR THE REDUCTION OR TREATMENT OF INFLAMMATION” (AXCELLA HEALTH INC., priority 2018, published 2021).

How the values were obtained:
Assay type in all cases: cell-based
TNFα = test: LPS-induced TNFα secretion in primary human monocyte-derived macrophages (ELISA); set-up: TNFa Measurements Mean: unit not given here; settings: for TNFa Measurements Mean: LPS 0.15 ng/mL; for TNFa Measurements Mean / Donor 2 TNFa Measurements Mean / Donor 3 TNFa Measurements Mean: baseline subtracted; for LPS-induced TNFα secretion: macrophages, 0.15 ng/mL LPS
Procedure: (§1) Unpurified buffy coats (Research Blood Components) were carefully poured into 50 mL centrifuge tubes and diluted with room temperature Dulbecco's Phosphate Buffered Saline (dPBS) with Calcium and Magnesium (Gibco). Diluted buffy coats were further divided into four total 50 mL centrifuge tubes at 20 mL per tube. Lymphocyte Separation Medium (Corning) was carefully pipetted to the bottom of each centrifuge tube. Mixtures were centrifuged at 850× g for 32 minutes at 20° C. with 0 deceleration and acceleration.
(§2) The PBMC layer was separated from other components after centrifugation and added to new 50 mL centrifuge tube containing 25 mL dPBS. Total volume was brought up to 50 mL with dPBS and centrifuged at 600×g for 10 minutes at 20° C. with acceleration of 9, deceleration of 5. Supernatant was carefully removed from cell pellets. The cell pellets were resuspended using 10 mL dPBS. Total volume was then brought up to 50 mL using dPBS and centrifuged at 450×g for 5 min at 20° C. with acceleration of 9, deceleration of 9. The supernatant removal and cell pellet resuspension was repeated again.
(§3) The supernatant was then carefully removed from cell pellets. Cell pellets were resuspended in 10 mL dPBS without calcium or magnesium and filtered through a 70 uM cell strainer. The total PBMC number was determined using a Cellometer K2 automated cell counter. A total of 5E6 cells were saved for flow cytometric analysis. Remaining cells were centrifuged at 490×g for 5 minutes at 20° C. with acceleration of 9, deceleration of 9.
(§4) CD14+ cells were selected using EasySep™ Human CD14 Positive Selection Kit II ([…] Technologies). Cells were resuspended in cold EasySep™ Buffer ([…] Technologies) at 1×10^8 cells/mL. A total of 100 uL/mL EasySep™ Human CD14 Positive Selection Cocktail II was added to the cell suspension, mixed, and incubated at room temperature for 10 minutes. A total of 100 uL/mL RapidSpheres were added to the mixture and incubated at room temperature for 3 minutes after mixing, then RoboSep buffer was added to bring up the total volume to 10 mL. The mixture in a 15 mL tube was placed in magnet and incubated at room temperature for 3 minutes. Supernatant was discarded and 10 mL fresh EasySep™ buffer was added to 15 mL tube. The addition of RoboSep buffer, mixing, and discarding of supernatant was repeated two more times.
(§5) Negative and positive fractions were centrifuged at 490×g for 5 minutes at 20° C. with acceleration of 9, deceleration of 9, and resuspended in DMEM (Gibco) and 10% Heat Inactivated Fetal Bovine Serum (Atlanta Bio) and Penicillin/Streptomycin. Cells were counted and centrifuged again at 490× g for 5 minutes at 20° C. with acceleration of 9, deceleration of 9. After centrifugation, cell were resuspended in DMEM (Gibco) and 10% Heat Inactivated Fetal Bovine Serum (Atlanta Bio) and Penicillin/Streptomycin containing 500 U/mL […] and plated at 1-2×10^6 cells/mL on 10 cm tissue culture plates. Cells were kept in 37° C., 5% CO2 in between feedings/harvest.
(§6) Cells were fed every 3-4 days by removing media and unattached cells, centrifuging at 490× g for 5 minutes at 20° C. with acceleration of 9, deceleration of 9, and resuspending in fresh DMEM (Gibco) and 10% Heat Inactivated Fetal Bovine Serum (Atlanta Bio) and Penicillin/Streptomycin containing GM-CSF. Resuspended cells were seeded back onto 10 cm tissue culture plates and incubated at 37° C., 5% CO2. Differentiated macrophages were used for subsequent experiments.
(§7) Primary human PMBC derived macrophages were seeded on day 0 at 3.0E4 cells per well in 96-well microplates (ThermoFisher) in Dulbecco's Modified Eagle Medium (DMEM) (Gibco) supplemented with penicillin-streptomycin (Hyclone) and 10% heat inactivated fetal bovine serum (HI-FBS) (Atlanta Bio) and incubated overnight at 37° C., 5% CO2. On day 1, cells were washed once with 150 uL per well DPBS (Gibco) and treated with 75 uL of: • a. […]

IL-6 [1] = test: LPS-induced IL-6 secretion in primary human monocyte-derived macrophages (ELISA); settings: for IL-6 Measurements Mean: LPS 0.15 ng/mL, baseline subtracted; for LPS-induced IL-6 secretion: macrophages, 0.15 ng/mL LPS
Procedure: as §1, §2, §3, §4, §5, §6, §7

IL-6 [2] = test: IL-6 cytokine secretion by TNFα-stimulated primary human hepatic stellate cells (ELISA); settings: for IL-6 cytokine secretion, per-cell normalized, fold change from plasma amino acid background: primary human hepatic stellate cells, two donors, TNFα 3 ng/mL, 12 hours
Procedure: Primary human hepatic stellate cells were obtained from Samsara Sciences and grown in Complete HSC Medium to […] confluence in T75 or T150 flasks below passage 10 were seeded into 96-well plates and incubated for 6 hours at 37° C., 5% CO2 in a humidified incubator. After 6 hours, plates were removed from the incubator washed with DPBS and pretreated (±single amino acid dropout, ±supplemental amino acid dose; see experiment for medium composition) overnight, ˜14-15 hours. After overnight pretreatment, the medium was removed from the cells, and the same pretreatment medium, now supplemented with 3 ng/mL TNFα was applied. Plates were incubated for 12 hours at 37° C., 5% CO2. After 12 hour stimulus with TNFα, supernatant was removed and frozen at −80° C. in two separate aliquots. Plates were washed and incubated with CCK-8 viability reagent (Dojindo) for 1 hour. Viability was measured on the Synergy plate reader. Immediately, the medium was removed and the plates were fixed for immunofluorescence staining.
Human CCL2/MCP1 and Human IL-6 were measured by ELISA (Human […] DuoSet ELISA, R&D Systems; Human IL-6 DuoSet ELISA, R&D Systems) at ⅕ and 1/20 dilution in 1× Reagent Diluent (Reagent Ancillary Kit 2, R&D Systems). Data were normalized to the specific per well cell density determined by Hoechst stained nuclei count.
Tables 39-42 show per-cell normalized IL-6 cytokine secretion in primary human hepatic stellate cells from two donors as a fold change from the plasma amino acid background. Statistical significance calculated by one-way ANOVA with Dunnett's multiple comparison test within each treatment group.

[3] = Donor 1, Conc. 234 μM (baseline)
[4] = Donor 2, Conc. 234 μM (baseline)
[5] = Donor 3, Conc. 234 μM (baseline)

Structure (SMILES): CC(=O)N[C@@H](CS)C(=O)O [NAC, N-acetylcysteine]
- TNFa Measurements Mean (TNFα; Donor 1, Conc. 0 X (baseline)): 0
- TNFa Measurements Mean (TNFα; Donor 1, Conc. 5 X): −326.24
- TNFa Measurements Mean (TNFα; Donor 1, Conc. 10 X): −446.88
- TNFa Measurements Mean (TNFα; Donor 1, Conc. 20 X): −561.33
- TNFa Measurements Mean (TNFα; Donor 1, Conc. 40 X): −644.49
- Donor 2 TNFa Measurements Mean (TNFα; Donor 2, Conc. 0 X (baseline)): 9.47E−15
- Donor 2 TNFa Measurements Mean (TNFα; Donor 2, Conc. 5 X): −54.1596
- Donor 2 TNFa Measurements Mean (TNFα; Donor 2, Conc. 10 X): −70.8382
- Donor 2 TNFa Measurements Mean (TNFα; Donor 2, Conc. 20 X): −88.6528
- Donor 2 TNFa Measurements Mean (TNFα; Donor 2, Conc. 40 X): −103.984
- Donor 3 TNFa Measurements Mean (TNFα; Donor 3, Conc. 0 X (baseline)): 4.74E−15
- Donor 3 TNFa Measurements Mean (TNFα; Donor 3, Conc. 5 X): −33.6246
- Donor 3 TNFa Measurements Mean (TNFα; Donor 3, Conc. 10 X): −41.7266
- Donor 3 TNFa Measurements Mean (TNFα; Donor 3, Conc. 20 X): −48.4373
- Donor 3 TNFa Measurements Mean (TNFα; Donor 3, Conc. 40 X): −55.3093
- LPS-induced TNFα secretion (TNFα; Donor 1): significantly reduced
- LPS-induced TNFα secretion (TNFα; Donor 2): significantly reduced
- LPS-induced TNFα secretion (TNFα; Donor 3): significantly reduced
- IL-6 Measurements Mean (IL-6 [1]; Donor 1, Conc. 0 X (baseline)): 0
- IL-6 Measurements Mean (IL-6 [1]; Donor 1, Conc. 5 X): 308.1772
- IL-6 Measurements Mean (IL-6 [1]; Donor 1, Conc. 10 X): −121.142
- IL-6 Measurements Mean (IL-6 [1]; Donor 1, Conc. 20 X): −553.802
- IL-6 Measurements Mean (IL-6 [1]; Donor 1, Conc. 40 X): −914.194
- IL-6 Measurements Mean (IL-6 [1]; Donor 2, Conc. 0 X (baseline)): −2.4E−15
- IL-6 Measurements Mean (IL-6 [1]; Donor 2, Conc. 5 X): −0.7946
- IL-6 Measurements Mean (IL-6 [1]; Donor 2, Conc. 10 X): −9.751
- IL-6 Measurements Mean (IL-6 [1]; Donor 2, Conc. 20 X): −24.9999
- IL-6 Measurements Mean (IL-6 [1]; Donor 2, Conc. 40 X): −33.7585
- IL-6 Measurements Mean (IL-6 [1]; Donor 3, Conc. 0 X (baseline)): −9.5E−15
- IL-6 Measurements Mean (IL-6 [1]; Donor 3, Conc. 5 X): −70.3269
- IL-6 Measurements Mean (IL-6 [1]; Donor 3, Conc. 10 X): −103.586
- IL-6 Measurements Mean (IL-6 [1]; Donor 3, Conc. 20 X): −122.656
- IL-6 Measurements Mean (IL-6 [1]; Donor 3, Conc. 40 X): −140.851
- LPS-induced IL-6 secretion (IL-6 [1]; Donor 1): significantly reduced
- LPS-induced IL-6 secretion (IL-6 [1]; Donor 2): significantly reduced
- LPS-induced IL-6 secretion (IL-6 [1]; Donor 3): significantly reduced
- Fold Change IL-6 Secretion Normalized Per Cell (IL-6 [2]; donor 1, Conc. 5 X): 0.7141
- Fold Change IL-6 Secretion Normalized Per Cell (IL-6 [2]; donor 1, Conc. 10 X): 0.7354
- Fold Change IL-6 Secretion Normalized Per Cell (IL-6 [2]; donor 1, Conc. 20 X): 0.6121
- Fold Change IL-6 Secretion Normalized Per Cell (IL-6 [2]; donor 1, Conc. 40 X): 0.5716
- Fold Change IL-6 Secretion Normalized Per Cell (IL-6 [2]; donor 2, Conc. 5 X): 0.9161
- Fold Change IL-6 Secretion Normalized Per Cell (IL-6 [2]; donor 2, Conc. 10 X): 0.9180
- Fold Change IL-6 Secretion Normalized Per Cell (IL-6 [2]; donor 2, Conc. 20 X): 0.8111
- Fold Change IL-6 Secretion Normalized Per Cell (IL-6 [2]; donor 2, Conc. 40 X): 0.7064
- IL-6 cytokine secretion, per-cell normalized, fold change from plasma amino acid background (IL-6 [2]): reduced IL-6 secretion in both donors but was only statistically significant in one of two donors

Structure (SMILES): CC(C)[C@H](N)C(=O)O [Valine, L-Valine]
- TNFa Measurements Mean (TNFα; [3]): 0
- TNFa Measurements Mean (TNFα; Donor 1, Conc. 4684 μM): −40.37
- TNFa Measurements Mean (TNFα; Donor 1, Conc. 11710 μM): −41.77
- TNFa Measurements Mean (TNFα; Donor 1, Conc. 23420 μM): −14.98
- Donor 2 TNFa Measurements Mean (TNFα; [4]): −4.7E−15
- Donor 2 TNFa Measurements Mean (TNFα; Donor 2, Conc. 4684 μM): −0.00221
- Donor 2 TNFa Measurements Mean (TNFα; Donor 2, Conc. 11710 μM): −0.835
- Donor 2 TNFa Measurements Mean (TNFα; Donor 2, Conc. 23420 μM): −1.251
- Donor 3 TNFa Measurements Mean (TNFα; [5]): −2.4E−15
- Donor 3 TNFa Measurements Mean (TNFα; Donor 3, Conc. 4684 μM): 0.126
- Donor 3 TNFa Measurements Mean (TNFα; Donor 3, Conc. 11710 μM): −2.599
- Donor 3 TNFa Measurements Mean (TNFα; Donor 3, Conc. 23420 μM): 3.688
- IL-6 Measurements Mean (IL-6 [1]; [3]): 0
- IL-6 Measurements Mean (IL-6 [1]; Donor 1, Conc. 4684 μM): −85.9843
- IL-6 Measurements Mean (IL-6 [1]; Donor 1, Conc. 11710 μM): −97.25
- IL-6 Measurements Mean (IL-6 [1]; Donor 1, Conc. 23420 μM): −106.268
- IL-6 Measurements Mean (IL-6 [1]; [4]): −4.7E−15
- IL-6 Measurements Mean (IL-6 [1]; Donor 2, Conc. 4684 μM): −4.528
- IL-6 Measurements Mean (IL-6 [1]; Donor 2, Conc. 11710 μM): −1.196
- IL-6 Measurements Mean (IL-6 [1]; Donor 2, Conc. 23420 μM): 4.396
- IL-6 Measurements Mean (IL-6 [1]; [5]): 4.26E−14
- IL-6 Measurements Mean (IL-6 [1]; Donor 3, Conc. 4684 μM): −30.0609
- IL-6 Measurements Mean (IL-6 [1]; Donor 3, Conc. 11710 μM): −43.8022
- IL-6 Measurements Mean (IL-6 [1]; Donor 3, Conc. 23420 μM): −29.2004
- Fold Change IL-6 Secretion Normalized Per Cell (IL-6 [2]; donor 1, Conc. 234 μM (plasma background, reference)): 1.0000
- Fold Change IL-6 Secretion Normalized Per Cell (IL-6 [2]; donor 2, Conc. 234 μM (plasma background, reference)): 1.0000
- IL-6 cytokine secretion, per-cell normalized, fold change from plasma amino acid background (IL-6 [2]): no significant effect
